Values of other authors as cited in article PMC6311893, “Computational prediction of plasma protein binding of cyclic peptides from small molecule experimental data using sparse modeling techniques” (BMC Bioinformatics, 2018).
Positions of bridges follow the written chain, without caps; N, C: chain ends. Non-standard residues stand in square brackets, D forms with d. Residues, ends and D or L forms follow the SMILES beside them. *: point of attachment. Octanoyl(6-Me) = CCC(C)CCCCC(=O)*; Dab = NCC[CH](N)C(=O)O

System: plasma protein
Conditions: fraction bound to plasma protein; small molecule dataset, sheet 1-SM (Set Dte = test, Dtr = training); ref Ingle et al.; cited from earlier work
In the case of `CN(C)CCCOc1nn(Cc2ccccc2)c2ccccc12` [benzydamine], the “PPB (fb)” value is listed as 0.1.
In the case of `CCOC(=O)/C=C(C)/C=C/C=C(C)/C=C/c1c(C)cc(OC)c(C)c1C` [etretinate], the “PPB (fb)” value is given as 0.99.
For `CCCCC[C@H](O)/C=C/[C@H]1[C@H](O)CC(=O)[C@@H]1CCCCCCC(=O)O` [alprostadil], the “PPB (fb)” value is given as 0.92.
In the case of `CC(=O)OCC1=C(C(=O)O)N2C(=O)[C@@H](NC(=O)CC#N)[C@H]2SC1` [cephacetrile], the “PPB (fb)” value is given as 0.2.
In the case of `O=C(O)c1cn(-c2cccc(O)c2)c2cc(N3CCNCC3)c(F)cc2c1=O` [8b(m-OH)], the “PPB (fb)” value is listed as 0.35.
For `CCCCCCC(N)C(=O)NC1C(=O)N2C1SC(C)(C)C2C(=O)O` (stereo not drawn) [penicillin13], the “PPB (fb)” value is given as 0.66.
For `Clc1ccc2c(c1)C(N1CCNCC1)=Nc1ccccc1O2` [amoxapine], the “PPB (fb)” value is listed as 0.9.
In the case of `C/N=C(\NC)NCc1ccccc1` [bethanidine], the “PPB (fb)” value is given as 0.1.
In the case of `CC(=O)Nc1ccc(/C=N/NC(N)=S)cc1` [amithiozone], the “PPB (fb)” value is given as 0.95.
In the case of `C[C@@H]1CN([C@H]2CC[C@](C#N)(c3ccc(F)cc3)CC2)CC[C@]1(C(=O)O)c1ccccc1` [levocabastine], the “PPB (fb)” value is listed as 0.55.
In the case of `N=C(N)N1CCc2ccccc2C1` [debrisoquine], the “PPB (fb)” value is given as 0.85.
For `CCCCCOC(=O)Nc1nc(=O)n([C@@H]2O[C@H](C)[C@@H](O)[C@H]2O)cc1F` [capecitabine], the “PPB (fb)” value is given as 0.3.
For `CC(C)C[C@H]1C(=O)N2CCC[C@H]2[C@]2(O)O[C@](NC(=O)[C@@H]3C=C4c5cccc6[nH]c(Br)c(c56)C[C@H]4N(C)C3)(C(C)C)C(=O)N12` [bromocriptine], the “PPB (fb)” value is listed as 0.95.
For `C[C@@](Cc1ccc(O)c(O)c1)(NN)C(=O)O` [carbidopa], the “PPB (fb)” value is given as 0.36.
In the case of `Cc1c(N(C)C)c(=O)n(-c2ccccc2)n1C` [amidopyrine], the “PPB (fb)” value is listed as 0.3.
For `CN1CCC(=C2c3ccccc3CCc3cccnc32)CC1` [azatadine], the “PPB (fb)” value is listed as 0.1.
For `CC12CC(=O)C3C(CCC4CC(O)CCC43C)C1CCC2C(=O)CO` (stereo not drawn) [alfadolone], the “PPB (fb)” value is given as 0.3.
In the case of `O=C(O)COC(=O)Cc1ccccc1Nc1c(Cl)cccc1Cl` [aceclofenac], the “PPB (fb)” value is given as 0.99.
In the case of `CN(C)CCC=C1c2ccccc2CCc2ccccc21` [Amitriptyline], the “PPB (fb)” value is listed as 0.94.
In the case of `O=C(O)CCCC[C@@H]1SC[C@@H]2NC(=O)N[C@@H]21` [biotin], the “PPB (fb)” value is given as 0.2.

Same assay, conditions: fraction bound to plasma protein; small molecule dataset, sheet 1-SM, Set Dtr; ref Ingle et al.; cited from earlier work
In the case of `Cc1c(C)c2c(c(C)c1O)CCC(C)(COc1ccc(CC3SC(=O)NC3=O)cc1)O2` (stereo not drawn) [troglitazone], the “PPB (fb)” value is listed as 0.99.
For `CC1(C)S[C@@H]2[C@H](NC(=O)[C@H](N)c3ccc(O)cc3)C(=O)N2[C@H]1C(=O)O` [Amoxicillin], the “PPB (fb)” value is listed as 0.17.
In the case of `Cc1onc(-c2c(Cl)cccc2Cl)c1C(=O)N[C@@H]1C(=O)N2[C@@H]1SC(C)(C)[C@@H]2C(=O)O` [Dicloxacillin], the “PPB (fb)” value is listed as 0.96.
In the case of `COCCNC(=O)CN(CCN(CCN(CC(=O)O)CC(=O)NCCOC)CC(=O)O)CC(=O)O` [Gadoversetamide], the “PPB (fb)” value is given as 0.
In the case of `C[C@@H](O)[C@H]1C(=O)N2C(C(=O)O)=C(S[C@@H]3CN[C@H](C(=O)Nc4cccc(C(=O)O)c4)C3)[C@H](C)[C@H]12` [Ertapenem], the “PPB (fb)” value is listed as 0.91.
In the case of `CC(=O)NC[C@H]1CN(c2ccc(N3CCOCC3)c(F)c2)C(=O)O1` [Linezolid], the “PPB (fb)” value is given as 0.31.
For `C=C1CC[C@@]2(O)[C@H]3Cc4ccc(O)c5c4[C@@]2(CCN3CC2CC2)[C@H]1O5` [Nalmefene], the “PPB (fb)” value is given as 0.36.
In the case of `O=C(NC1CCN(CCc2c[nH]c3ccccc23)CC1)c1ccccc1` [Indoramin], the “PPB (fb)” value is given as 0.83.
For `COc1ccc(Cl)cc1C(=O)NCCc1ccc(S(=O)(=O)NC(=O)NC2CCCCC2)cc1` [Glyburide], the “PPB (fb)” value is given as 0.98.
In the case of `C[C@H]1[C@H](NC(=O)/C(=N\OC(C)(C)C(=O)O)c2csc(N)n2)C(=O)N1S(=O)(=O)O` [Aztreonam], the “PPB (fb)” value is given as 0.58.
In the case of `CNCCCN1c2ccccc2CCc2ccccc21` [Desipramine], the “PPB (fb)” value is listed as 0.85.

Same assay, conditions: fraction bound to plasma protein; small molecule dataset, sheet 1-SM; ref Ingle et al.; cited from earlier work
In the case of `Cn1nnc2c(C(N)=O)ncn2c1=O` [temozolomide], the “PPB (fb)” value is given as 0.15.
For `Clc1ccc2nsnc2c1NC1=NCCN1` [Tizanidine], the “PPB (fb)” value is listed as 0.3.
For `CN(C)CCc1c[nH]c2ccc(C[C@H]3COC(=O)N3)cc12` [Zolmitriptan], the “PPB (fb)” value is listed as 0.25.
In the case of `CCCCC1C(=O)N(c2ccccc2)N(c2ccccc2)C1=O` [phenylbutazone], the “PPB (fb)” value is listed as 0.98.
For `Cc1ccnc(NS(=O)(=O)c2ccc(N)cc2)n1` [sulfamerazine], the “PPB (fb)” value is listed as 0.85.
In the case of `O=C(NCCNCC(O)COc1ccc(O)cc1)N1CCOCC1` (stereo not drawn) [Xamoterol], the “PPB (fb)” value is listed as 0.03.
For `CC(=O)OCC(CCn1cnc2cnc(N)nc21)COC(C)=O` [famciclovir], the “PPB (fb)” value is listed as 0.15.
In the case of `NS(=O)(=O)c1ccc(S(=O)(=O)Nc2cccc3c(Cl)c[nH]c23)cc1` [indisulam], the “PPB (fb)” value is given as 0.98.
In the case of `CN(C)CC(c1ccc(O)cc1)C1(O)CCCCC1` (stereo not drawn) [O-desmethylvenlafaxine], the “PPB (fb)” value is listed as 0.3.
In the case of `Cc1c(C(C)C)c(=O)n(-c2ccccc2)n1C` [propyphenazone], the “PPB (fb)” value is listed as 0.1.
In the case of `CC1=C(CC(=O)O)c2cc(F)ccc2/C1=C\c1ccc([S+](C)[O-])cc1` (stereo not drawn) [sulindac], the “PPB (fb)” value is listed as 0.93.
In the case of `CC(Oc1ccc(Cl)cc1)C(=O)NC1C(=O)N2C1SC(C)(C)C2C(=O)O` (stereo not drawn) [penicillin42], the “PPB (fb)” value is listed as 0.92.
In the case of `CC(C)(C)NCC(O)c1cc(O)cc(O)c1` (stereo not drawn) [Terbutaline], the “PPB (fb)” value is listed as 0.23.
For `CC(C)(Oc1ccccc1)C(=O)NC1C(=O)N2C1SC(C)(C)C2C(=O)O` (stereo not drawn) [penicillin49], the “PPB (fb)” value is given as 0.92.
In the case of `CCc1cc(C(N)=S)ccn1` [ethionamide], the “PPB (fb)” value is listed as 0.3.
For `N=C(N)c1ccc(OCCCCCOc2ccc(C(=N)N)cc2)cc1` [pentamidine], the “PPB (fb)” value is listed as 0.7.
In the case of `CC(C(=O)O)c1cccc(Oc2ccccc2)c1` (stereo not drawn) [fenoprofen], the “PPB (fb)” value is listed as 0.99.
For `CC1(C)SC2C(NC(=O)C(NC(=O)c3ccccn3)c3ccccc3)C(=O)N2C1C(=O)O` (stereo not drawn) [penicillin36], the “PPB (fb)” value is listed as 0.63.
For `CC(C)(O)C(=O)Nc1ccc([N+](=O)[O-])c(C(F)(F)F)c1` [hydroxyflutamide], the “PPB (fb)” value is listed as 0.93.
In the case of `COc1cc(NC(C)CCCN)c2ncccc2c1` (stereo not drawn) [primaquine], the “PPB (fb)” value is given as 0.8.
For `Cn1cc(NC(=O)c2cc(NC(=O)c3cc(NC(=O)c4nsc(Cl)c4Cl)cn3C)cn2C)cc1C(=O)NCCC(=N)N` [GSQ1530], the “PPB (fb)” value is listed as 0.89.

Same assay, conditions: human, plasma; cited from earlier work
In the case of `CCC(C)CCCCC(=O)NC(CCN)C(=O)NC(C(=O)NC(CCN)C(=O)NC1CCNC(=O)C(C(C)O)NC(=O)C(CCN)NC(=O)C(CCN)NC(=O)C(CC(C)C)NC(=O)C(Cc2ccccc2)NC(=O)C(CCN)NC1=O)C(C)O` (stereo not drawn) [polymyxin-B] ({Octanoyl(6-Me)}-[Dab]T[Dab][Dab][Dab]FL[Dab][Dab]T; lactam 4-C; configuration not given here), the “PPB (fb)” value is listed as 0.1.

Same assay, conditions: plasma; cited from earlier work
For `O=C(O)CCCc1ccc(N(CCCl)CCCl)cc1` [Chlorambucil], the “PPB (fb)” value is given as 0.99.
For `Cc1ncsc1CCCl` [Chlormethiazole], the “PPB (fb)” value is listed as 0.64.
In the case of `C=CCC1(C(C)C)C(=O)NC(=O)NC1=O` [aprobarbital], the “PPB (fb)” value is given as 0.62.
For `CC[C@@]1(O)C[C@H](O[C@H]2C[C@H](N(C)C)[C@H](O[C@H]3C[C@H](O)[C@H](O[C@H]4CCC(=O)[C@H](C)O4)[C@H](C)O3)[C@H](C)O2)c2c(cc3c(c2O)C(=O)c2c(O)cccc2C3=O)[C@H]1C(=O)OC` [aclarubicin], the “PPB (fb)” value is given as 0.43.
For Rolitetracycline, the “PPB (fb)” value is given as 0.5.
In the case of `COc1cccc(C2(O)CCCCC2CN(C)C)c1` (stereo not drawn) [Tramadol], the “PPB (fb)” value is listed as 0.16.
For `CCC1(CC)C(=O)NCC(C)C1=O` (stereo not drawn) [methyprylon], the “PPB (fb)” value is given as 0.6.
